Measured values: patent publication US8952024B2, “Herbicidal pyrimidone derivatives” (E I du Pont de Nemours and Company, priority 2009, dated 2015)

Tests used:
Format in all cases: in vivo
[1] = test system: wheat (Triticum aestivum); test: Test A pre-/postemergence plant response
Source text: (§1) Seeds of barnyardgrass (Echinochloa crus-galli), large crabgrass (Digitaria sanguinalis), giant foxtail (Setaria faberii), morningglory (Ipomoea spp.), pigweed (Amaranthus retroflexus), velvetleaf (Abutilon theophrasti), wheat (Triticum aestivum) and corn (Zea mays) were planted into a blend of loam soil and sand and treated preemergence with a directed soil spray using test chemicals formulated in a non-phytotoxic solvent mixture which included a surfactant. At the same time these species were also treated with postemergence applications of test compounds formulated in the same manner.
(§2) Plants ranged in height from two to ten cm and were in the one- to two-leaf stage for the postemergence treatment. Treated plants and untreated controls were maintained in a greenhouse for approximately ten days, after which time all treated plants were compared to untreated controls and visually evaluated for injury. Plant response ratings, summarized in Table A, are based on a 0 to 100 scale where 0 is no effect and 100 is complete control. A dash (-) response means no test result.

[2] = test system: giant foxtail (Setaria faberii); test: Test A pre-/postemergence plant response
Source text: as §1, §2

[3] = test system: large crabgrass (Digitaria sanguinalis); test: Test A pre-/postemergence plant response
Source text: as §1, §2

[4] = test system: barnyardgrass (Echinochloa crus-galli); test: Test A pre-/postemergence plant response
Source text: as §1, §2

[5] = test system: velvetleaf (Abutilon theophrasti); test: Test A pre-/postemergence plant response
Source text: as §1, §2

[6] = test system: pigweed (Amaranthus retroflexus); test: Test A pre-/postemergence plant response
Source text: as §1, §2

[7] = test system: morningglory (Ipomoea spp.); test: Test A pre-/postemergence plant response
Source text: as §1, §2

corn (Zea mays) = test: Test A pre-/postemergence plant response
Source text: as §1, §2

[8] = test system: barnyardgrass (Echinochloa crus-galli); test: Test B flooded paddy test; details: for Plant response rating, Flood, Barnyardgrass: 250 g ai/ha, flooded paddy test, visual rating on 0 to 100 scale (0 no effect, 100 complete control) after 13 to 15 days; for Plant response rating, Barnyardgrass: Flood (flooded paddy test), 62 g ai/ha, scale 0 to 100, 0 is no effect, 100 is complete control, 13 to 15 days
Source text: (§3) Plant species in the flooded paddy test consisted of rice (Oryza sativa), umbrella sedge (Cyperus difformis), ducksalad (Heteranthera limosa) and barnyardgrass (Echinochloa crus-galli) grown to the 2-leaf stage for testing. At the time of treatment, test pots were flooded with water to 3 cm above the soil surface, treated by application of test compounds directly to the paddy water, and then maintained at that water depth for the duration of the test.
(§4) Treated plants and controls were maintained in a greenhouse for 13 to 15 days, after which time all treated plants were visually evaluated and compared to controls. Plant response ratings, summarized in Table B, are based on a scale of 0 to 100 where 0 is no effect and 100 is complete control. A dash (-) response means no test result.

[9] = test system: ducksalad (Heteranthera limosa); test: Test B flooded paddy test; details: for Plant response rating, Flood, Ducksalad: 250 g ai/ha, flooded paddy test, visual rating on 0 to 100 scale (0 no effect, 100 complete control) after 13 to 15 days; for Plant response rating, Ducksalad: Flood (flooded paddy test), 62 g ai/ha, scale 0 to 100, 0 is no effect, 100 is complete control, 13 to 15 days
Source text: as §3, §4

[10] = test system: umbrella sedge (Cyperus difformis); test: Test B flooded paddy test; details: for Plant response rating, Flood, Sedge, Umbrella: 250 g ai/ha, flooded paddy test, visual rating on 0 to 100 scale (0 no effect, 100 complete control) after 13 to 15 days; for Plant response rating, Sedge, Umbrella: Flood (flooded paddy test), 62 g ai/ha, scale 0 to 100, 0 is no effect, 100 is complete control, 13 to 15 days
Source text: as §3, §4

rice (Oryza sativa) = test: Test B flooded paddy test; details: for Plant response rating, Flood, Rice: 250 g ai/ha, flooded paddy test, visual rating on 0 to 100 scale (0 no effect, 100 complete control) after 13 to 15 days; for Plant response rating, Rice: Flood (flooded paddy test), 62 g ai/ha, scale 0 to 100, 0 is no effect, 100 is complete control, 13 to 15 days
Source text: as §3, §4

[11] = Postemergence, 125 g ai/ha, visual injury, 0 to 100 scale (0 no effect, 100 complete control), approx. ten days
[12] = Postemergence, 500 g ai/ha, 0 to 100 scale, 0 = no effect, 100 = complete control, approx. ten days
[13] = Preemergence, 125 g ai/ha, 0 to 100 scale, 0 = no effect, 100 = complete control
[14] = Preemergence, 500 g ai/ha, visual injury, 0 to 100 scale (0 no effect, 100 complete control), approx. ten days

O=C1CCCC(O)=C1C(=O)c1cnc(-c2ccc(Cl)cc2)n(-c2ccccc2)c1=O [Compound 25]
Wheat plant response rating [1, 11]: 0 | Plant response rating, Wheat [1, 12]: 0 | Plant response rating, Wheat [1, 13]: 0 | Plant response rating, Wheat [1, 14]: 20 | Foxtail, Giant plant response rating [2, 11]: 50 | Plant response rating, Foxtail, Giant [2, 12]: 90 | Plant response rating, Foxtail, Giant [2, 13]: 50 | Plant response rating, Foxtail, Giant [2, 14]: 90 | Crabgrass, Large plant response rating [3, 11]: 40 | Plant response rating, Crabgrass, Large [3, 12]: 90 | Plant response rating, Crabgrass, Large [3, 13]: 60 | Plant response rating, Crabgrass, Large [3, 14]: 100 | Barnyardgrass plant response rating [4, 11]: 30 | Plant response rating, Barnyardgrass [4, 12]: 90 | Plant response rating, Barnyardgrass [4, 13]: 20 | Plant response rating, Barnyardgrass [4, 14]: 80 | Velvetleaf plant response rating [5, 11]: 100 | Plant response rating, Velvetleaf [5, 12]: 100 | Plant response rating, Velvetleaf [5, 13]: 80 | Plant response rating, Velvetleaf [5, 14]: 100 | Pigweed plant response rating [6, 11]: 80 | Plant response rating, Pigweed [6, 12]: 100 | Plant response rating, Pigweed [6, 13]: 50 | Plant response rating, Pigweed [6, 14]: 80 | Morningglory plant response rating [7, 11]: 50 | Plant response rating, Morningglory [7, 12]: 90 | Plant response rating, Morningglory [7, 13]: 0 | Plant response rating, Morningglory [7, 14]: 60 | Corn plant response rating (corn (Zea mays); [11]): 0 | Plant response rating, Corn (corn (Zea mays); [12]): 20 | Plant response rating, Corn (corn (Zea mays); [13]): 0 | Plant response rating, Corn (corn (Zea mays); [14]): 0 | Plant response rating, Flood, Barnyardgrass [8]: 0 | Plant response rating, Barnyardgrass [8]: 0 | Plant response rating, Flood, Ducksalad [9]: 0 | Plant response rating, Ducksalad [9]: 0 | Plant response rating, Flood, Sedge, Umbrella [10]: 0 | Plant response rating, Sedge, Umbrella [10]: 0 | Plant response rating, Flood, Rice (rice (Oryza sativa)): 0 | Plant response rating, Rice (rice (Oryza sativa)): 0

Cc1cccc(C)c1-n1c(-c2ccccc2)ncc(C(=O)C2=C(O)CCCC2=O)c1=O [Compound 31]
Wheat plant response rating [1, 11]: 0 | Plant response rating, Wheat [1, 12]: 0 | Plant response rating, Wheat [1, 13]: 0 | Plant response rating, Wheat [1, 14]: 0 | Foxtail, Giant plant response rating [2, 11]: 70 | Plant response rating, Foxtail, Giant [2, 12]: 90 | Plant response rating, Foxtail, Giant [2, 13]: 0 | Plant response rating, Foxtail, Giant [2, 14]: 40 | Crabgrass, Large plant response rating [3, 11]: 50 | Plant response rating, Crabgrass, Large [3, 12]: 90 | Plant response rating, Crabgrass, Large [3, 13]: 0 | Plant response rating, Crabgrass, Large [3, 14]: 90 | Barnyardgrass plant response rating [4, 11]: 10 | Plant response rating, Barnyardgrass [4, 12]: 80 | Plant response rating, Barnyardgrass [4, 13]: 0 | Plant response rating, Barnyardgrass [4, 14]: 40 | Velvetleaf plant response rating [5, 11]: 100 | Plant response rating, Velvetleaf [5, 12]: 100 | Plant response rating, Velvetleaf [5, 13]: 10 | Plant response rating, Velvetleaf [5, 14]: 70 | Pigweed plant response rating [6, 11]: 70 | Plant response rating, Pigweed [6, 12]: 100 | Plant response rating, Pigweed [6, 13]: 40 | Plant response rating, Pigweed [6, 14]: 80 | Morningglory plant response rating [7, 11]: 20 | Plant response rating, Morningglory [7, 12]: 70 | Plant response rating, Morningglory [7, 13]: 0 | Plant response rating, Morningglory [7, 14]: 50 | Corn plant response rating (corn (Zea mays); [11]): 0 | Plant response rating, Corn (corn (Zea mays); [12]): 20 | Plant response rating, Corn (corn (Zea mays); [13]): 0 | Plant response rating, Corn (corn (Zea mays); [14]): 0 | Plant response rating, Flood, Barnyardgrass [8]: 0 | Plant response rating, Barnyardgrass [8]: 0 | Plant response rating, Flood, Ducksalad [9]: 75 | Plant response rating, Ducksalad [9]: 60 | Plant response rating, Flood, Sedge, Umbrella [10]: 75 | Plant response rating, Sedge, Umbrella [10]: 60 | Plant response rating, Flood, Rice (rice (Oryza sativa)): 0 | Plant response rating, Rice (rice (Oryza sativa)): 0
